Assay results from patent US20250223259A1, “PROTEASE INHIBITORS FOR TREATING OR PREVENTING CORONAVIRUS INFECTION” (Merck Sharp & Dohme LLC, priority 2022, published 2025).

The molecules below were run against SARS2 coronavirus 3CL protease (Severe acute respiratory syndrome coronavirus 2 (2019-nCoV) (SARS-CoV-2), UniProt P0DTD1) (assay: SARS2 Coronavirus 3CL Protease Assay (FRET)). Conditions: SARS2 3CLPro FRET assay; 5 nM enzyme, 30 min pre-incubation with compound, 15 uM peptide substrate, 4 h room temperature.
Type: biochemical
Protocol: The enzymatic activity of SARS2 coronavirus 3CL protease was determined in a FRET (fluorescence resonance energy transfer)-based assay measuring the cleavage of a peptide substrate by recombinantly expressed and purified enzyme. Cleavage of the peptide SEQ ID NO:1 (CPC Scientific) by SARS2 3CL protease was measured in reaction buffer (50 mM Hepes pH 7.5, 0.01% Triton X-100, 0.01% BSA, 2 mM DTT). SARS2 3CL protease (5 nM final concentration) was pre-incubated with compound for 30 minutes before reaction initiation with peptide substrate (15 uM final concentration). Room temperature reactions (4 h) were quenched by addition of a high dose of inhibitor and read on an appropriate plate reader (excitation wavelength=495 nm, emission wavelength=520 nm). Data were analyzed by a standard 4 parameter fit to determine IC50 values.

Compared with `COC(=O)N[C@H](C(=O)N1C[C@H]2[C@@H](C1C(=O)N[C@@H](CCC(C)(F)F)C(=O)C(=O)NC1CC1)C2(Cl)Cl)C(C)(C)C` (single isomer, unassigned) [Example 106, methyl ((S)-1-((1S,2(S or R),5R)-6,6-dichloro-2-(((S)-1-(cyclopropylamino)-6,6-difluoro-1,2-dioxoheptan-3-yl)carbamoyl)-3-azabicyclo[3.1.0]hexan-3-yl)-3,3-dimethyl-1-oxobutan-2-yl)carbamate], `COC(=O)N[C@H](C(=O)N1CC2CCC2C1C(=O)N[C@@H](CCC(C)(F)F)C(=O)C(=O)NC1CC1)C(C)(C)C` (single isomer, unassigned) [Example 43, Methyl ((S)-1-((1(R or S), 2(R or S),5(R or S))-(2-(((S)-1-(cyclopropylamino)-6,6-difluoro-1,2-dioxoheptan-3-yl)carbamoyl)-3-azabicyclo[3.2.0]heptan-3-yl)-3,3-dimethyl-1-oxobutan-2-yl)carbamate] is 2.8-fold higher in IC50: 8 nM for the first, 22 nM for the second. The first is the more potent here.

First: COC(=O)N[C@H](C(=O)N1CC(C)(C)C[C@H]1C(=O)N[C@@H](CCC(C)(F)F)C(=O)C(=O)NC1CC1)C(C)(C)C [Example 76, Methyl ((S)-1-((S)-2-(((S)-1-(cyclopropylamino)-6,6-difluoro-1,2-dioxoheptan-3-yl)carbamoyl)-4,4-dimethylpyrrolidin-1-yl)-3,3-dimethyl-1-oxobutan-2-yl)carbamate]
Second: COC(=O)N[C@H](C(=O)N1CC2(CCC2)CC1C(=O)N[C@@H](CCC(C)(F)F)C(=O)C(=O)NC1CC1)C(C)(C)C (single isomer, unassigned) [Example 47, Methyl ((S)-1-(R or S)-7-(((S)-1-(cyclopropylamino)-6,6-difluoro-1,2-dioxoheptan-3-yl)carbamoyl)-6-azaspiro[3.4]octan-6-yl)-3,3-dimethyl-1-oxobutan-2-yl)carbamate]
The IC50 of the first is 2.3-fold higher: 87 nM for the first, 38 nM for the second. The second is the more potent here.

Compared with `COC(=O)N[C@H](C(=O)N1CCC(C)C1C(=O)N[C@@H](CCC(C)(F)F)C(=O)C(=O)NC1CC1)C(C)(C)C` (single isomer, unassigned) [Example 51, Methyl ((S)-1-((2(R or S),3(R or S))-2-(((S)-1-(cyclopropylamino)-6,6-difluoro-1,2-dioxoheptan-3-yl)carbamoyl)-3-methylpyrrolidin-1-yl)-3,3-dimethyl-1-oxobutan-2-yl)carbamate], `COC(=O)N[C@H](C(=O)N1C[C@@H]2CCC[C@@H]2[C@H]1C(=O)N[C@@H](CCC(C)(F)F)C(=O)C(=O)NC1CC1)C(C)(C)C` [Example 31, Methyl ((S)-1-((1S,3aR,6aS)-1-(((S)-1-(cyclopropylamino)-6,6-difluoro-1,2-dioxoheptan-3-yl)carbamoyl)hexahydrocyclo-penta[c]pyrrol-2(1H)-yl)-3,3-dimethyl-1-oxobutan-2-yl)carbamate] is 9.7-fold lower in IC50: 97 nM for the first, 10 nM for the second.

First: COC(=O)N[C@@H](C)C(=O)N1CC2(CCCCC2)C[C@H]1C(=O)N[C@@H](CCC(C)(F)F)C(=O)C(=O)NC1CC1 [Example 14, Methyl ((S)-1-((S)-3-(((S)-1-(cyclopropylamino)-6,6-difluoro-1,2-dioxoheptan-3-yl)carbamoyl)-2-azaspiro[4.5]decan-2-yl)-1-oxopropan-2-yl)carbamate]
Second: COC(=O)NC1(C(=O)N2CC3(CCCCC3)C[C@H]2C(=O)N[C@@H](CCC(C)(F)F)C(=O)C(=O)NC2CC2)CC1 [Example 19, Methyl (1-((S)-3-(((S)-1-(cyclopropylamino)-6,6-difluoro-1,2-dioxoheptan-3-yl)carbamoyl)-2-azaspiro[4.5]decane-2-carbonyl)cyclopropyl) carbamate]
The IC50 of the first is 7.2-fold lower: 69 nM for the first, 497 nM for the second.

Going from `CCOC(=O)N[C@H](C(=O)N1C[C@@H]2CCC[C@@H]2[C@H]1C(=O)N[C@@H](CCC(C)(F)F)C(=O)C(=O)NC)C(C)(C)C` [Example 120, ethyl ((S)-1-((1S,3aR,6aS)-1-(((S)-6,6-difluoro-1-(methylamino)-1,2-dioxoheptan-3-yl)carbamoyl)hexahydrocyclopenta[c]pyrrol-2(1H)-yl)-3,3-dimethyl-1-oxobutan-2-yl)carbamate] to `CNC(=O)C(=O)[C@H](CCC(C)(F)F)NC(=O)[C@@H]1[C@H]2CCC[C@H]2CN1C(=O)[C@@H](NC(=O)OCC(F)(F)F)C(C)(C)C` [Example 122, 2,2,2-trifluoroethyl ((S)-1-((1S,3aR,6aS)-1-(((S)-6,6-difluoro-1-(methylamino)-1,2-dioxoheptan-3-yl)carbamoyl)hexahydrocyclopenta[c]pyrrol-2(1H)-yl)-3,3-dimethyl-1-oxobutan-2-yl)carbamate], the IC50 rises from 21 nM to 34 nM (1.6-fold). The first is the more potent here.

Compared with `CNC(=O)C(=O)[C@H](CCC(C)(F)F)NC(=O)[C@@H]1[C@@H](C(F)(F)F)CCN1C(=O)[C@@H](NC(=O)OC)C(C)(C)C` [Example 81, methyl ((S)-1-((2S,3S)-2-(((S)-6,6-difluoro-1-(methylamino)-1,2-dioxoheptan-3-yl)carbamoyl)-3-(trifluoromethyl)pyrrolidin-1-yl)-3,3-dimethyl-1-oxobutan-2-yl)carbamate], `CNC(=O)C(=O)[C@H](CCC(C)(F)F)NC(=O)[C@@H]1C[C@H](C(F)(F)F)CCN1C(=O)[C@@H](NC(=O)OC)C(C)(C)C` [Example 22, Methyl ((S)-1-((2S,4R)-2-(((S)-6,6-difluoro-1-(methylamino)-1,2-dioxoheptan-3-yl)carbamoyl)-4-(trifluoromethyl)piperidin-1-yl)-3,3-dimethyl-1-oxobutan-2-yl)carbamate] is 4.4-fold lower in IC50: 44 nM for the first, 10 nM for the second. The second is the more potent here.

`CNC(=O)C(=O)[C@H](CCC(C)(F)F)NC(=O)[C@@H]1CC2(CN1C(=O)[C@@H](NC(=O)OC)C(C)(C)C)CC2(F)F` (single isomer, unassigned) [Example 93, methyl ((S)-1-((3(S or R),6S)-6-(((S)-6,6-difluoro-1-(methylamino)-1,2-dioxoheptan-3-yl)carbamoyl)-1,1-difluoro-5-azaspiro[2.4]heptan-5-yl)-3,3-dimethyl-1-oxobutan-2-yl)carbamate] and `CNC(=O)C(=O)[C@H](CCC(C)(F)F)NC(=O)[C@@H]1CC(F)(F)[C@@H](C)CN1C(=O)[C@@H](NC(=O)OC)C(C)(C)C` [Example 91, methyl ((S)-1-((2S,5S)-2-(((S)-6,6-difluoro-1-(methylamino)-1,2-dioxoheptan-3-yl)carbamoyl)-4,4-difluoro-5-methylpiperidin-1-yl)-3,3-dimethyl-1-oxobutan-2-yl)carbamate] are within 1.5-fold of each other in IC50: 28 nM for the first, 19 nM for the second.

First: COC(=O)N[C@H](C(=O)N1CC2(CCCCC2)C[C@H]1C(=O)N[C@@H](CCC(C)(F)F)C(=O)C(N)=O)C(C)(C)C [Example 78, Methyl ((S)-1-((S)-3-(((S)-1-amino-6,6-difluoro-1,2-dioxoheptan-3-yl)carbamoyl)-2-azaspiro[4.5]decan-2-yl)-3,3-dimethyl-1-oxobutan-2-yl)carbamate]
Second: COC(=O)N[C@H](C(=O)N1CC2(CCC(F)(F)CC2)CC1C(=O)N[C@@H](CCC(C)(F)F)C(=O)C(=O)NC1CC1)C(C)(C)C (single isomer, unassigned) [Example 56, Methyl ((S)-1-((R or S)-(3-(((S)-1-(cyclopropylamino)-6,6-difluoro-1,2-dioxoheptan-3-yl)carbamoyl)-8,8-difluoro-2-azaspiro[4.5]decan-2-yl)-3,3-dimethyl-1-oxobutan-2-yl)carbamate]
The IC50 of the first is 24-fold lower: 12 nM for the first, 291 nM for the second. The first is the more potent here.

Compared with `COC(=O)N[C@H](C(=O)N1C[C@H](C(F)(F)F)C[C@H]1C(=O)N[C@@H](CCC(C)(F)F)C(=O)C(=O)NC1CC1)C(C)(C)C` [Example 67, Methyl ((S)-1-((2S,4R)-2-(((S)-1-(cyclopropylamino)-6,6-difluoro-1,2-dioxoheptan-3-yl)carbamoyl)-4-(trifluoromethyl)pyrrolidin-1-yl)-3,3-dimethyl-1-oxobutan-2-yl)carbamate], `COC(=O)N[C@H](C(=O)N1CCC(O)(C(F)(F)F)C[C@H]1C(=O)N[C@@H](CCC(C)(F)F)C(=O)C(=O)NC1CC1)C(C)(C)C` (single isomer, unassigned) [Example 58, Methyl ((S)-1-((2S, 4(R or S))-2-(((S)-1-(cyclopropylamino)-6,6-difluoro-1,2-dioxoheptan-3-yl)carbamoyl)-4-hydroxy-4-(trifluoromethyl)piperidin-1-yl)-3,3-dimethyl-1-oxobutan-2-yl)carbamate] is 17-fold higher in IC50: 20 nM for the first, 347 nM for the second. The first is the more potent here.

`COC(=O)N[C@H](C(=O)N1CC2(CCCCC2)C[C@H]1C(=O)N[C@@H](CCC(C)(F)F)C(=O)C(=O)NC1CC1)C1CCOCC1` [Example 74, Methyl ((S)-2-((S)-3-(((S)-1-(cyclopropylamino)-6,6-difluoro-1,2-dioxoheptan-3-yl)carbamoyl)-2-azaspiro[4.5]decan-2-yl)-2-ox0-1-(tetrahydro-2H-pyran-4-yl)ethyl)carbamate] and `CNC(=O)C(=O)[C@H](CCC(C)(F)F)NC(=O)C1CCCC(C)N1C(=O)[C@@H](NC(=O)OC)C(C)(C)C` (single isomer, unassigned) [Example 110, methyl ((S)-1-((2S,6S or 2R,6R)-2-(((S)-6,6-difluoro-1-(methylamino)-1,2-dioxoheptan-3-yl)carbamoyl)-6-methylpiperidin-1-yl)-3,3-dimethyl-1-oxobutan-2-yl)carbamate] are within 1.5-fold of each other in IC50: 69 nM for the first, 61 nM for the second.

`COC(=O)N[C@H](C(=O)N1C[C@H]2[C@@H]([C@H]1C(=O)N[C@@H](CCC(C)(F)F)C(=O)C(N)=O)C(C)(C)C2(C)C)C(C)(C)C` [Example 42, Methyl ((S)-1-((1R,2S,5S)-2-(((S)-1-amino-6,6-difluoro-1,2-dioxoheptan-3-yl)carbamoyl)-6,6,7,7-tetramethyl-3-azabicyclo[3.2.0]heptan-3-yl)-3,3-dimethyl-1-oxobutan-2-yl)carbamate] and `CNC(=O)C(=O)[C@H](CCC(C)(F)F)NC(=O)[C@@H]1[C@@H]2[C@H](CN1C(=O)[C@@H](NC(=O)OC)C(C)(C)C)CC2(F)F` [Example 92, methyl ((S)-1-((1S,2S,5R)-2-(((S)-6,6-difluoro-1-(methylamino)-1,2-dioxoheptan-3-yl)carbamoyl)-7,7-difluoro-3-azabicyclo[3.2.0]heptan-3-yl)-3,3-dimethyl-1-oxobutan-2-yl)carbamate] are within 1.5-fold of each other in IC50: 22 nM for the first, 29 nM for the second.
